Drawing on PubChem BioAssay (NCI), this text covers TGI for four compounds.

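96-well plates; 48 h exposure; 5 concentrations. Endpoints by linear interpolation between flanking doses. Not reached: highest tested concentration assigned. At the TGI there is no net growth.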

The test system of the first assay is SK-MEL-28 melanoma. In words: NCI anticancer screen, dose series, 48 h.
Turning to `C[n+]1c2ccccc2c(/C=N\NS(=O)(=O)c2ccc(O)c(C(=O)O)c2)c2ccccc21`, the TGI is more than 100 µM.

`CCOC(=O)CN1C(=O)c2cccc3cc([N+](=O)[O-])cc(c23)C1=O`: the TGI was 7.39 µM.

`Brc1ccc(N=c2nc3ccccn3n3nc(-c4ccccc4)cc23)cc1`: the TGI is more than 100 µM.

Another assay concerns SK-MEL-5 melanoma. In words: NCI anticancer screen, dose series, 48 h.
On to `CC1(c2ccc(F)cc2)C(C#N)C(=O)NC(=O)C1C#N` (stereo not drawn), for which the TGI was more than 100 µM.

The compound `C[n+]1c2ccccc2c(/C=N\NS(=O)(=O)c2ccc(O)c(C(=O)O)c2)c2ccccc21` displayed a TGI of more than 100 µM.

Compound `CCOC(=O)CN1C(=O)c2cccc3cc([N+](=O)[O-])cc(c23)C1=O` had a TGI of 25.5 µM.

Regarding `Brc1ccc(N=c2nc3ccccn3n3nc(-c4ccccc4)cc23)cc1`, the TGI is more than 100 µM.

In a further assay the test system is SK-OV-3 ovarian. In words: NCI anticancer screen, dose series, 48 h.
Regarding `CC1(c2ccc(F)cc2)C(C#N)C(=O)NC(=O)C1C#N` (stereo not drawn), the TGI is more than 100 µM.

Take `C[n+]1c2ccccc2c(/C=N\NS(=O)(=O)c2ccc(O)c(C(=O)O)c2)c2ccccc21`: the TGI is more than 100 µM.

In turn, `CCOC(=O)CN1C(=O)c2cccc3cc([N+](=O)[O-])cc(c23)C1=O` came in with a TGI of 41 µM.

In turn, `Brc1ccc(N=c2nc3ccccn3n3nc(-c4ccccc4)cc23)cc1` gave a TGI of more than 100 µM.

A further assay concerns SN12C renal. The experiment in a line: NCI anticancer screen, dose series, 48 h.
`CC1(c2ccc(F)cc2)C(C#N)C(=O)NC(=O)C1C#N` (stereo not drawn) came in with a TGI of more than 100 µM.

The compound `C[n+]1c2ccccc2c(/C=N\NS(=O)(=O)c2ccc(O)c(C(=O)O)c2)c2ccccc21` came in with a TGI of more than 100 µM.

Consider `CCOC(=O)CN1C(=O)c2cccc3cc([N+](=O)[O-])cc(c23)C1=O`, for which the TGI was determined as 17.2 µM.

`Brc1ccc(N=c2nc3ccccn3n3nc(-c4ccccc4)cc23)cc1` registered a TGI of more than 100 µM.

The test system of the next assay is SNB-19 CNS. The experiment in a line: NCI anticancer screen, dose series, 48 h.
`CC1(c2ccc(F)cc2)C(C#N)C(=O)NC(=O)C1C#N` (stereo not drawn) showed a TGI of more than 100 µM.

Turning to `C[n+]1c2ccccc2c(/C=N\NS(=O)(=O)c2ccc(O)c(C(=O)O)c2)c2ccccc21`, the TGI is more than 100 µM.

The compound `CCOC(=O)CN1C(=O)c2cccc3cc([N+](=O)[O-])cc(c23)C1=O` had a TGI of 32.3 µM.

`Brc1ccc(N=c2nc3ccccn3n3nc(-c4ccccc4)cc23)cc1` registered a TGI of 95.1 µM.

A further assay has as its system SNB-75 CNS. In words: NCI anticancer screen, dose series, 48 h.
In turn, `CC1(c2ccc(F)cc2)C(C#N)C(=O)NC(=O)C1C#N` (stereo not drawn) returned a TGI of more than 100 µM.

For `C[n+]1c2ccccc2c(/C=N\NS(=O)(=O)c2ccc(O)c(C(=O)O)c2)c2ccccc21`, the TGI was more than 100 µM.

`CCOC(=O)CN1C(=O)c2cccc3cc([N+](=O)[O-])cc(c23)C1=O` yielded a TGI of 22.2 µM.

Consider `Brc1ccc(N=c2nc3ccccn3n3nc(-c4ccccc4)cc23)cc1`, for which the TGI is more than 100 µM.

The test system of another assay is SNB-78 CNS. In words: NCI anticancer screen, dose series, 48 h.
`C[n+]1c2ccccc2c(/C=N\NS(=O)(=O)c2ccc(O)c(C(=O)O)c2)c2ccccc21` registered a TGI of more than 100 µM.

In turn, `CCOC(=O)CN1C(=O)c2cccc3cc([N+](=O)[O-])cc(c23)C1=O` gave a TGI of 19.3 µM.

The test system of the next assay is SR leukemia. The experiment in a line: NCI anticancer screen, dose series, 48 h.
The compound `CCOC(=O)CN1C(=O)c2cccc3cc([N+](=O)[O-])cc(c23)C1=O` registered a TGI of 0.381 µM.

`Brc1ccc(N=c2nc3ccccn3n3nc(-c4ccccc4)cc23)cc1` had a TGI of more than 100 µM.

Another assay relates to SW-620 colon. The experiment in a line: NCI anticancer screen, dose series, 48 h.
Compound `CC1(c2ccc(F)cc2)C(C#N)C(=O)NC(=O)C1C#N` (stereo not drawn) came in with a TGI of more than 100 µM.

Regarding `C[n+]1c2ccccc2c(/C=N\NS(=O)(=O)c2ccc(O)c(C(=O)O)c2)c2ccccc21`, the TGI is more than 100 µM.

With `CCOC(=O)CN1C(=O)c2cccc3cc([N+](=O)[O-])cc(c23)C1=O`, the TGI was found to be 2.99 µM.

In turn, `Brc1ccc(N=c2nc3ccccn3n3nc(-c4ccccc4)cc23)cc1` displayed a TGI of more than 100 µM.

For the next assay, the system named is TK-10 renal. In words: NCI anticancer screen, dose series, 48 h.
As for `CC1(c2ccc(F)cc2)C(C#N)C(=O)NC(=O)C1C#N` (stereo not drawn), the TGI was more than 100 µM.

`C[n+]1c2ccccc2c(/C=N\NS(=O)(=O)c2ccc(O)c(C(=O)O)c2)c2ccccc21` showed a TGI of more than 100 µM.

`CCOC(=O)CN1C(=O)c2cccc3cc([N+](=O)[O-])cc(c23)C1=O` showed a TGI of 30.7 µM.

`Brc1ccc(N=c2nc3ccccn3n3nc(-c4ccccc4)cc23)cc1` returned a TGI of 95.4 µM.

The subject of the next assay is U251 CNS. In words: NCI anticancer screen, dose series, 48 h.
On to `C[n+]1c2ccccc2c(/C=N\NS(=O)(=O)c2ccc(O)c(C(=O)O)c2)c2ccccc21`, for which the TGI was more than 100 µM.

In turn, `CCOC(=O)CN1C(=O)c2cccc3cc([N+](=O)[O-])cc(c23)C1=O` yielded a TGI of 20.3 µM.

Consider `Brc1ccc(N=c2nc3ccccn3n3nc(-c4ccccc4)cc23)cc1`, for which the TGI was more than 100 µM.

A further assay relates to UACC-257 melanoma. The experiment in a line: NCI anticancer screen, dose series, 48 h.
`CC1(c2ccc(F)cc2)C(C#N)C(=O)NC(=O)C1C#N` (stereo not drawn) yielded a TGI of more than 100 µM.

For the compound `CCOC(=O)CN1C(=O)c2cccc3cc([N+](=O)[O-])cc(c23)C1=O`, the TGI worked out at 7.73 µM.

For `Brc1ccc(N=c2nc3ccccn3n3nc(-c4ccccc4)cc23)cc1`, the TGI was more than 100 µM.

The next assay deals with UACC-62 melanoma. In words: NCI anticancer screen, dose series, 48 h.
For the compound `CC1(c2ccc(F)cc2)C(C#N)C(=O)NC(=O)C1C#N` (stereo not drawn), the TGI is more than 100 µM.

Regarding `C[n+]1c2ccccc2c(/C=N\NS(=O)(=O)c2ccc(O)c(C(=O)O)c2)c2ccccc21`, the TGI was more than 100 µM.

Take `CCOC(=O)CN1C(=O)c2cccc3cc([N+](=O)[O-])cc(c23)C1=O`: the TGI was found to be 5.2 µM.

For the compound `Brc1ccc(N=c2nc3ccccn3n3nc(-c4ccccc4)cc23)cc1`, the TGI was determined as 63.3 µM.

The next assay deals with UO-31 renal. In words: NCI anticancer screen, dose series, 48 h.
`CC1(c2ccc(F)cc2)C(C#N)C(=O)NC(=O)C1C#N` (stereo not drawn) had a TGI of more than 100 µM.

On to `C[n+]1c2ccccc2c(/C=N\NS(=O)(=O)c2ccc(O)c(C(=O)O)c2)c2ccccc21`, for which the TGI is more than 100 µM.

With `CCOC(=O)CN1C(=O)c2cccc3cc([N+](=O)[O-])cc(c23)C1=O`, the TGI was found to be 27 µM.

`Brc1ccc(N=c2nc3ccccn3n3nc(-c4ccccc4)cc23)cc1` displayed a TGI of more than 100 µM.

The subject of another assay is XF 498 CNS. The experiment in a line: NCI anticancer screen, dose series, 48 h.
Regarding `CC1(c2ccc(F)cc2)C(C#N)C(=O)NC(=O)C1C#N` (stereo not drawn), the TGI is more than 100 µM.

Compound `C[n+]1c2ccccc2c(/C=N\NS(=O)(=O)c2ccc(O)c(C(=O)O)c2)c2ccccc21` showed a TGI of 83.8 µM.

For `CCOC(=O)CN1C(=O)c2cccc3cc([N+](=O)[O-])cc(c23)C1=O`, the TGI is 4.49 µM.

The compound `Brc1ccc(N=c2nc3ccccn3n3nc(-c4ccccc4)cc23)cc1` registered a TGI of 77 µM.
